# Measured values taken from patent US8466104B2, “Therapeutically active alpha MSH analogues” (AbbVie Inc., priority 2005, dated 2013).
# “And” between values parts separate entries of the source, which are not always exact repeats. Equal values may be shown once. “Also recorded” adds a separate entry of the source. Read-outs that look alike come from different tables or passages of the source.
# Experiments:
# [1] = test system: LPS induced TNF-α in plasma; assay: Inhibition of LPS induced TNFa production in rats in vivo (experimental setup 2); parameters: species or system rat; conditions: for inhibitory effect on plasma TNF-a compared to native a-MSH / TNF-a concentration in plasma, % of the maximal response (LPS-Vehicle) / dose at which the maximal inhibitory effect on TNF-a is achieved: iv LPS infusion; for TNF-a concentration in plasma, % of the maximal response (LPS-Vehicle): 200 μg/kg body weight iv, 120 minutes after initiation of LPS infusion; for dose at which the maximal inhibitory effect on TNF-a is achieved: doses 50, 200, 1000 μg/kg tested
# Experimental: Inhibition of LPS Induced TNFa Production in Rats In Vivo
# Experimental animals. Female Wistar rats (220-240 g) are obtained from the Charles River, Sulzfeld, Germany, and housed in a temperature- (22-24° C.) and moisture-controlled (40-70%) room with a 12 h light-dark cycle (light on from 6:00 A.M. to 6:00 P.M.). The rats are maintained on a standard rodent diet with 140 mmol/kg of sodium, 275 mmol/kg potassium and 23% protein (Altromin International, Lage, Germany) and have free access to water.
# Animal preparation. […] After instrumentation, the animals are housed individually for 7-10 days until the day of the experiment.
# Experimental protocol. Prior to the experiments all rats are adapted to the restraining cage used for the experiments by training them for two periods of two hours each. On the day of the experiment, the animal is transferred to a restraining cage, and an intravenous infusion of vehicle solution containing 150 mM glucose is started. The infusion rate is 0.5 ml/h throughout the experiment. After a short adaptation period, infusion of lipopolysaccharide (LPS) is started. LPS (E coli serotype 0127 B8, L 3129, Sigma, St. Louis, USA) is given at a dose of 4 mg/kg body weight delivered as an i.v. infusion over 1 hour. Arterial blood samples of 0.3 ml are taken 60, 90, and 120 minutes after start of the LPS infusion and replaced immediately with heparinized blood from a normal donor rat.
# In addition to LPS infusion all rats are treated with a bolus injection of: • Vehicle (0.5 mL isotonic saline); • a-MSH in one of the following doses: 50 μg/kg bw; 200 μg/kg/bw or 1000 μg/kg bw; • Test compound in one of the following doses: 50 μg/kg bw; 200 μg/kg/bw or 1000 μg/kg bw.
# Measurement of TNF-α in plasma: The blood samples are collected in a prechilled test tube with 0.5 mM EDTA, pH 7.4, and 20×10^6 IU/ml aprotinin. After centrifugation at 4° C., plasma samples are transferred to pre-chilled test tubes and stored at −20° C. for later measurements of TNF-α. TNF-α in plasma is determined by an ELISA (Biotrak, Amersham, UK).
# Statistical analyses. Results are presented as means±SE. A two-way ANOVA for repeated measures is used to test for differences between groups. In case of P<0.05, the differences between corresponding periods are evaluated by unpaired t-tests with Bonferroni's correction of the level of significance.
# [2] = test system: ischemia-induced acute renal failure in rats; assay: Inhibition of renal failure induced by 40 minutes bilateral occlusion of the renal arteries in rats (experimental setup 6); format: in vivo, rat; conditions: for effect on post ischemic polyuria: bilateral renal ischemia; for diuresis (urine flow rate): 5 day after bilateral renal ischemia (RIR), 200 μg/kg iv
# Experimental: Inhibition of Renal Failure Induced by 40 Minutes Bilateral Occlusion of the Renal Arteries in Rats
# Barrier-bred and specific pathogen-free female Wistar rats (250 g) are obtained from Charles River, Hannover, Germany. The animals are housed in a temperature (22-24° C.) and moisture (40-70%) controlled room with a 12-hour light-dark cycle (light on from 6:00 A.M. to 6:00 P.M.). All animals are given free access to tap water and a pelleted rat diet containing approximately 140 mmol/kg of sodium, 275 mmol/kg potassium and 23% protein (Altromin catalogue no. 1310, Altromin International, Lage, Germany).
# The rats, which previously have been instrumented with a chronic venous catheter, are placed in metabolic cages and after a two days acclimation period to the metabolic cages, experimental ARF is induced by occlusion of both renal arteries for […]. During surgery, the rats are anesthetized with isoflurane-nitrous oxide and placed on a heated table to maintain rectal temperature at 37° C. Both kidneys are exposed through flank incisions, mobilized by being dissected free from the perirenal fat, then a small portion of the renal artery is gently dissected from the vein. The renal arteries are occluded with a smooth surfaced vascular clip (60 g pressure; World Precision Instruments, UK) for 40 min. Total ischemia is confirmed by observing blanching of the entire kidney surface. During the period of ischemia, the wounds are closed temporarily to maintain body temperature. After the clips are removed, the kidneys are observed for additional 2-5 min. to ensure color change, indicating blood reflow. Then the wound are closed with 3-0 silk ligatures. The rats returned to the metabolic cages, and daily 24 h urine output and water intake are measured for five days. As a control group, rats are subjected to sham operations identical to the ones used for ARF rats without occlusion of the renal arteries. Sham-operated rats are monitored in parallel with rats with ARF.
# The rats are subjected to one of the following i.v treatments: • Vehicle: 0.5 ml 150 mM NaCl. • a-MSH: 200 μg a-melanocyte stimulating hormone/kg b.w. in 0.5 ml 150 mM NaCl. Test compound: 200 μg test compound/kg b.w. in 0.5 ml 150 mM NaCl. Treatment is given 5 minutes prior to reperfusion of the kidney and subsequently 6 and 24 hours later. Statistics
# (§1) Data are presented as mean±S.E. Within group comparisons are analysed with Student's paired t test. Between group comparisons are performed by one way analysis of variance followed by Fishers Least Significant Difference test. Differences are considered significant at the 0.05 level.
# [3] = test system: cisplatin induced renal failure in rats; assay: Inhibition of cisplatin induced renal failure (experimental setup 7); format: in vivo, rat; conditions: for effect on cisplatin induced fall in GFR / effect on cisplatin induced hypomagnesemia: rats treated with cisplatin; for Plasma Mg: rats treated with cisplatin 5.0 mg/kg ip, 200 μg/kg iv test compound
# Experimental: Inhibition of Cisplatin Induced Renal Failure
# Rats, which previously have been instrumented with a chronic venous catheter, are placed in metabolic cages and after a period of acclimation to the metabolic cages the rats are treated with an intreperitoneal cisplatin injection 5.0 mg/kg bw in 0.5 ml 150 mM NaCl or vehicle (0.5 ml 150 mM NaCl). Five days later the rats are then returned to metabolic cages, and daily 24 h urine output and water intake are measured and collected for the next five days. All rats are then anesthetized in halothan/N2O and an arterial blood sample collected in prechilled EDTA coated vials. The blood samples are collected in a prechilled test tube with 0.5 mM EDTA, pH 7.4, and 20×10^6 IU/ml aprotinin. After centrifugation at 4° C., plasma samples are transferred to pre-chilled test tubes and stored at −20° C. for later measurements of creatinine and Magnesium (Mg). In addition to this creatinine is also measured in the urine collected in the last 24 hours period prior to the blood collection. […] Measurement of creatinine in urine and plasma is performed by use of the clinical chemistry systems VITROS 950 (Ortho-Clinical Diagnostics Inc., Johnson & Johnson, NJ) and Roche Hitachi Modular (Roche Diagnostics, Mannheim, Germany).
# The rats are subjected to one of the following i.v treatments: • Vehicle: 0.5 ml 150 mM NaCl • a-MSH: 200 μg o-melanocyte stimulating hormone/kg b.w. in 0.5 ml 150 mM NaCl. • Test compound: 200 μg test compound/kg b.w. in 0.5 ml 150 mM NaCl. Treatment is given 5 minutes prior to reperfusion of the kidney and subsequently 6 and 24 hours later. Statistics
# as §1
Substance,reduction of TNF-a accumulation during iv infusion of LPS [1],inhibitory effect on plasma TNF-a compared to native a-MSH [1],"TNF-a concentration in plasma, % of the maximal response (LPS-Vehicle) [1]",dose at which the maximal inhibitory effect on TNF-a is achieved [1],inhibitory effect on plasma TNF-a compared to native a-MSH ([1]; listed as SEQ ID NO: 5*),reduction of TNF-a accumulation during iv infusion of LPS ([1]; listed as SEQ ID NO: 5*),effect on post ischemic polyuria [2],effect on cisplatin induced fall in GFR [3],effect on cisplatin induced hypomagnesemia [3],diuresis (urine flow rate) [2],Plasma Mg [3],inhibitory effect on plasma TNF-a compared to native a-MSH ([1]; listed as SEQ ID NO: 1*),reduction of TNF-a accumulation during iv infusion of LPS ([1]; listed as SEQ ID NO: 1*),effect on post ischemic polyuria ([2]; listed as SEQ ID NO: 1),inhibitory effect on plasma TNF-a compared to native a-MSH ([1]; listed as SEQ ID NO: 9*),reduction of TNF-a accumulation during iv infusion of LPS ([1]; listed as SEQ ID NO: 9*)
"Ac-Lys-Lys-Lys-Lys-Lys-Lys-Ser-Tyr-Ser-Nle-Glu-His-(D-Phe)-Arg-Trp-Gly-Lys-Pro-Val-NH2 (KKKKKKSYSXEHFRWGKPV; N-acetyl, Nle, D-Phe, C-amide) [a-MSH analogue #2]",reduce TNF-a accumulation,markedly more pronounced,9±1%,200 μg/kg body weight,higher degree,significantly inhibit,markedly reduces the degree of polyuria,prevents cisplatin induced hypomagnesemia as well as the cisplatin induced fall in GFR,prevents cisplatin induced hypomagnesemia,,,,,,,
"Ser-Tyr-Ser-Met-Glu-His-Phe-Arg-Trp-Gly-Lys-Pro-Val [a-MSH, reference compound]",reduce TNF-a accumulation; also recorded: reduce TNF-α accumulation,,17±3% and 17±30%,200 μg/kg body weight,,,unable to reduce the polyuria; also recorded: unable to normalize the urine production,,,29.0±2.9 ml/24 hours,0.37 ± 0.04 mM,,,,,
Ac-Lys-Lys-Lys-Lys-Lys-Lys-Ser-Tyr-Ser-Met-Glu-His-Phe-Arg-Trp-Gly-Lys-Pro-Val-NH2 (Ac-KKKKKKSYSMEHFRWGKPV-NH2) [a-MSH analogue #1],reduce TNF-a accumulation,markedly more pronounced,9±1%,200 μg/kg body weight,,,complete normalization of urine flow rate,prevents the cisplatin induced fall in GFR,prevents cisplatin induced hypomagnesemia,18.8±3.6 ml/24 hours,0.84 ± 0.04 mM,higher degree,significantly inhibit,completely normalized the diuresis,,
"Ac-Lys-Lys-Lys-Lys-Lys-Lys-Ser-Tyr-Ser-Nle-Glu-His-D-Nal-Arg-Trp-Gly-Lys-Pro-Val-NH2 (KKKKKKSYSXEHXRWGKPV; not fully specified; N-acetyl, Nle, D-Nal, C-amide) [a-MSH analogue #3]",reduce TNF-a accumulation,markedly more pronounced,11±3%,200 μg/kg body weight,,,,,,,,,,,higher degree,significantly inhibit
